Patent US20260053931A1, “MDM2 TARGETING PROTACS” (THE WISTAR INSTITUTE OF ANATOMY AND BIOLOGY, priority 2023, published 2026)

Experiments:
[1] = molecular target: T1, human cereblon (CRBN) complex (Homo sapiens, UniProt Q96SW2); assay: HTRF binding assay for Cereblon (Table 2)
T1 construct: purchased R & D systems
Source text: Biochemical assays in 384-well format have established to assess the binding of newly synthesized PROTACs to the appropriate E3 ligase using HTRF technology. In these assays an anti-HIS antibody conjugated to terbium was used as the donor fluor, and either a Cy5 labeled small molecule probe, or a biotinylated peptide that is bound to a streptavidin acceptor.
Cereblon: Recombinant human cereblon (CRBN) complex, including CUL4A, RBX1, DDB1 and CRBN is purchased from R & D systems. This four-member protein complex has an N-terminal HIS tag on the CUL4A subunit. The CRBN complex is diluted in assay buffer containing anti-HIS-Tb Cryptate Gold (CisBio) and is added to low volume 384-well plates. Test compounds in 100% DMSO are added to the plates followed by the Cy5-labeled lenolidamide probe. After 1 hour the HTRF signal is measured on the Envision. Data are normalized to % inhibition. The typical signal-to-noise is 5:1. Bi-functional molecules containing the Cereblon ligands are tested in TABLE 2 (see YX-02-041).

[2] = In vivo toxicity, C57Bl/6 mice; set-up: species or system mouse
Procedure: FIGS. 24A-24E show no overt toxicities from the MDM2-PROTAC YX-02-030 observed in vivo. A-B. A. After C57Bl/6 immunocompetent mice received 15 consecutive intraperitoneal (IP) injections of MDM2-PROTAC (50 mg/kg) or vehicle control treatments, complete blood counts were determined. B. H&E sections of formalin-fixed paraffin-embedded tissues evaluated (B, BM-bone marrow). C-E, Nude mice with subcutaneous tumors of MDA-MB-231 and MDA-MB-436 TNBC cells were administered (IP) MDM2-PROTAC YX-02-030, RG7112D, or vehicle control (50 mg/kg) for 14 consecutive days. C. Mouse weight was measured daily throughout the course of treatment. D. Complete blood counts were determined following 13 consecutive treatments. E. Sections of formalin-fixed paraffin-embedded tissues from mice at time of sacrifice were H&E stained and evaluated. Representative images are shown and scale bars are 200 m (spleen) and 300 μm (bone marrow and intestine). Mean±SD (A, C, D).
Prior to testing YX-02-030 tumors in vivo, mouse liver microsome and pharmacokinetic (PK) studies were performed to determine its stability in vivo. […] Due to its stability in vivo, the effectiveness of YX-02-030 was then evaluated at killing TNBC tumors in mice. […] The toxicity of YX-2-228 was analyzed as compared to both the vehicle and YX-2-30. […]

Raji = assay: Cell death of other cancer cell lines: Raji; format: cell-based; conditions: Homo sapiens, Burkitt lymphoma, values may change up to ±1-2 μM depending on the cell density
Procedure: (§1) The PROTACs prepared herein were tested for their use in other cancer cell lines to determine activity in multiple different types of cancer.

Ramos = assay: Cell death of other cancer cell lines: Ramos; format: cell-based; conditions: Homo sapiens, Burkitt lymphoma
Procedure: as §1

HH = assay: Cell death of other cancer cell lines: HH; format: cell-based; conditions: Homo sapiens, T cell lymphoma
Procedure: as §1

RS4; 11 = assay: Cell death of other cancer cell lines: RS4; 11; format: cell-based; conditions: Homo sapiens, 11, B-ALL
Procedure: as §1

H1299 = assay: Cell death of other cancer cell lines: H1299; format: cell-based; conditions: Homo sapiens, NCI-H1299; H1299, Lung adenocarcinoma
Procedure: as §1

OVCAR4 = assay: Cell death of other cancer cell lines: OVCAR4; format: cell-based; conditions: Homo sapiens, OVCAR-4; OVCAR4, Ovarian
Procedure: as §1

Mdm2 = Mdm2 (Homo sapiens, UniProt Q00987); assay: Western blot of TNBC cells treated with PROTAC; format: cell-based; set-up: endogenous in cells; MDA-MB-231 (A9)
Source text: A. Chemical structure of MDM2-PROTAC. B-C. MDM2:p53 and MDM2:VHL-HIF1α peptide binding inhibition determined by homogeneous time-resolved fluorescence (HTRF, triplicate, mean±SEM, B) and surface plasmon resonance (SPR, triplicate, mean±SD, C. Binding assays by the indicated compounds. Graphical data is representative of 3 separate experiments. D. AlphaScreen of ternary complex using GST-MDM2 and HIS-VHL; mean±SD. E-F. Western blot analysis for the proteins indicated following a dose-titration (E, 16 hr) and time course (F, 6 μM) with the PROTAC or vehicle control (DMSO, −) in MDA-MB-231 (p53-mutant) and MDA-MB-436 (p53-delete) cells. G-K. Western blot analysis for the proteins indicated following treatment with the MDM2-PROTAC and/or the neddylation activating enzyme inhibitor MLN4924 G.
PROTACs work by forming a ternary complex consisting of the target protein, the PROTAC, and the recruited E3 ubiquitin ligase-E2 complex, causing ubiquitination of the target protein, marking it for 26S proteasome-mediated degradation (Nalawansha & Crews, 2020). FIG. 19D confirms that the PROTAC forms a […] complex. […] Similarly, when the proteasome was inhibited with MG132, MDM2 protein levels were maintained despite YX-02-030 exposure (FIG. 19H). Therefore, YX-02-030 targets MDM2 protein for 26S proteasome-mediated degradation in TNBC cells and this requires the ubiquitin cascade.

Mdm2, sequence (Q00987 whole entry): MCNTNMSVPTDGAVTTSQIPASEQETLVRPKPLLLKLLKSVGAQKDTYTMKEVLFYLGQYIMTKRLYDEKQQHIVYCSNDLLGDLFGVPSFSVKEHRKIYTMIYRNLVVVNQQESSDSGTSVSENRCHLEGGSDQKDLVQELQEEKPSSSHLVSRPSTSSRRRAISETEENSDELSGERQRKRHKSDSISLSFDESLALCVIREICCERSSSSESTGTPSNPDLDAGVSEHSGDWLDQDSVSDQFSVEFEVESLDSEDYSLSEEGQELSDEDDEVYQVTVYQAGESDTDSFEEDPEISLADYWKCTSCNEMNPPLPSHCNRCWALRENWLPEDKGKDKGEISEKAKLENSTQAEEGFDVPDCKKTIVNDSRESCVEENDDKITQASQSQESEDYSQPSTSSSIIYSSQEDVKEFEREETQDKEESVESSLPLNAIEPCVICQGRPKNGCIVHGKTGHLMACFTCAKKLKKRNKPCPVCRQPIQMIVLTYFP
T1 sequence (Q96SW2 whole entry): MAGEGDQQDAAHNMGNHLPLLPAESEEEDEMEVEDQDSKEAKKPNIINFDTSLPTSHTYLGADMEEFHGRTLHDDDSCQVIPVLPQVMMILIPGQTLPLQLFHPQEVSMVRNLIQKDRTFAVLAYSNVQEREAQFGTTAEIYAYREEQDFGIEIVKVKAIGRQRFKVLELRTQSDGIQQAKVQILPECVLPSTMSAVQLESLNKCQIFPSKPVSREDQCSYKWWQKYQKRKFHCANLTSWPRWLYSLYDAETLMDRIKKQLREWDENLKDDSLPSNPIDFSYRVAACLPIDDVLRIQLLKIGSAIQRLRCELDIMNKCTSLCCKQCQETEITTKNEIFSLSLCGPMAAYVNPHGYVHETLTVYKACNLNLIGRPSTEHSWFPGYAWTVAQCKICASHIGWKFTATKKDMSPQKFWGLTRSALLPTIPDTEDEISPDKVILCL
T1 sequence (Q16531 whole entry partner): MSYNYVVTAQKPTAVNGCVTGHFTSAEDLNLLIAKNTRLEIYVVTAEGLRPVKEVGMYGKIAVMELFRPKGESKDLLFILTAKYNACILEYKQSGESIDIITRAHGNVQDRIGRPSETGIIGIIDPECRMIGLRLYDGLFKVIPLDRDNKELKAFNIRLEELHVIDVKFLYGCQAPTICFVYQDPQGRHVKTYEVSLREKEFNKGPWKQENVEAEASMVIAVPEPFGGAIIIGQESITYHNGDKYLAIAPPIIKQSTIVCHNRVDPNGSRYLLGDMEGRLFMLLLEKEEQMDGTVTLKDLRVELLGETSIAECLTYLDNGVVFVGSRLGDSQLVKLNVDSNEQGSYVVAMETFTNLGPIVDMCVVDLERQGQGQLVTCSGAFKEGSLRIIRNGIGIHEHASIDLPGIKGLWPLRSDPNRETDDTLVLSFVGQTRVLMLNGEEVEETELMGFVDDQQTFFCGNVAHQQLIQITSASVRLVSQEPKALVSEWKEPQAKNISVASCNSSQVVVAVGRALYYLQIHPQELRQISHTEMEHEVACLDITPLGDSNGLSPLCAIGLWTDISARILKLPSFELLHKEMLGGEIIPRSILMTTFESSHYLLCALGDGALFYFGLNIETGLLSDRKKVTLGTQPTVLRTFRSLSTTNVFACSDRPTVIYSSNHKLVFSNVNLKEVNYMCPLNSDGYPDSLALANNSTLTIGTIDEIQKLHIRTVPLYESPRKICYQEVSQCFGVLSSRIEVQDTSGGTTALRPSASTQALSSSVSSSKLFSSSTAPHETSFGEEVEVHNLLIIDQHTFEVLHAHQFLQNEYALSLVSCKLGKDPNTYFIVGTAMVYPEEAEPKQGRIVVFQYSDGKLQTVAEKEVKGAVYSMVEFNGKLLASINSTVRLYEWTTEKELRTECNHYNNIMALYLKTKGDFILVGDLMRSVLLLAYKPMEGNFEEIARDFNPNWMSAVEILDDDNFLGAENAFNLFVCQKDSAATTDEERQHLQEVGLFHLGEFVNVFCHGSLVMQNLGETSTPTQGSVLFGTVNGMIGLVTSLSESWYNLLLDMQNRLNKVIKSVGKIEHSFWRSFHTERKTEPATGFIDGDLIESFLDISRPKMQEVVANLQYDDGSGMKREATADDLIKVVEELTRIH
T1 sequence (Q13619 whole entry partner): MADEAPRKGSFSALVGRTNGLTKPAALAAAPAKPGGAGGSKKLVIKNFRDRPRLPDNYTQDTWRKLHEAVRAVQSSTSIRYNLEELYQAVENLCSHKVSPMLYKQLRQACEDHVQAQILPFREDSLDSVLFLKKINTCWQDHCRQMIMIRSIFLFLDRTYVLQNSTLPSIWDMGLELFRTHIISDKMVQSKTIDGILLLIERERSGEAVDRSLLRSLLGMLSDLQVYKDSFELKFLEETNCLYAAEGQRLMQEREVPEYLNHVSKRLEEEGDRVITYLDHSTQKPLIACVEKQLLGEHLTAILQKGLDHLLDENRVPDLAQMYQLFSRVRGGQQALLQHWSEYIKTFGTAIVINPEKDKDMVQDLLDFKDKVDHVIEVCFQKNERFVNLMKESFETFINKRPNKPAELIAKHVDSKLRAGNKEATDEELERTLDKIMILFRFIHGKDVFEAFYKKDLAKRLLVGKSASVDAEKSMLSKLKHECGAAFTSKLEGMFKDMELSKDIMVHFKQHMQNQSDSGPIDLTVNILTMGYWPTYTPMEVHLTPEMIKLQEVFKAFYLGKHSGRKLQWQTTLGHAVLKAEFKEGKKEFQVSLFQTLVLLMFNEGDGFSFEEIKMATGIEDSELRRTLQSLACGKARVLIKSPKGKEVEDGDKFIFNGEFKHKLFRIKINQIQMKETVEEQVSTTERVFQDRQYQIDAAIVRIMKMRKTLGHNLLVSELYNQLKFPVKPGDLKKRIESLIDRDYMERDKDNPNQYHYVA
T1 sequence (P62877 whole entry partner): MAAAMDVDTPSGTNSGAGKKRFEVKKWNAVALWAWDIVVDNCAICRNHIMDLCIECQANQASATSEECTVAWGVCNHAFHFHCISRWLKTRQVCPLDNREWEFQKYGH

| Structure (SMILES) | IC50 [1] | overt toxicity ([2]; C57Bl/6 mice and immune-deficient mice of the xenograft experiments, 50 mg/kg IP) | tolerability ([2]; C57Bl/6 mice, 30 mg/kg IP, 2× daily) | IC50 (Raji) | IC50 (Ramos) | IC50 (HH) | IC50 (RS4; 11) | IC50 (H1299) | IC50 (OVCAR4) | MDM2 protein level (Mdm2; MDA-MB-231 (mutated p53) and MDA-MB-436 (deleted p53), dose titration 16 hr, time course 6 μM) | VHL protein level (Mdm2; Western blot) |
| --- | --- | --- | --- | --- | --- | --- | --- | --- | --- | --- | --- |
| CCOc1cc(C(C)(C)C)ccc1C1=N[C@](C)(c2ccc(Cl)cc2)[C@](C)(c2ccc(Cl)cc2)N1C(=O)N1CCN(CC(=O)NCCOCCOCCOCC(=O)N[C@H](C(=O)N2C[C@H](O)C[C@H]2C(=O)NCc2ccc(-c3scnc3C)cc2)C(C)(C)C)CC1 (racemic) [YX-02-030] | > 10 µM | no signs of overt toxicity | well tolerated | 2.8 µM | 3.1 µM | 6.3 µM | 1.9 µM | 4.2 µM | 4.6 µM | loss of MDM2 protein | not degraded |
| CCOc1cc(C(C)(C)C)ccc1C1=N[C@](C)(c2ccc(Cl)cc2)[C@](C)(c2ccc(Cl)cc2)N1C(=O)N1CCN(CC(=O)NCCCNC(=O)COc2ccc3c(c2)CN(C(=O)[C@H](NC(=O)[C@@H](C)NC)C(C)(C)C)[C@@H](C(=O)N[C@H]2CCCc4ccccc42)C3)CC1 [YX-02-228, (R)-7-(2-((3-(2-(4-((4R,5S)-2-(4-(tert-butyl)-2-ethoxyphenyl)-4,5-bis(4-chlorophenyl)-4,5-dimethyl-4,5-dihydro-1H-imidazole-1-carbonyl)piperazin-1-yl)acetamido)propyl)amino)-2-oxoethoxy)-2-((R)-3,3-dimethyl-2-((R)-2-(methylamino)propanamido)butanoyl)-N-((S)-1,2,3,4-tetrahydronaphthalen-1-yl)-1,2,3,4-tetrahydroisoquinoline-3-carboxamide] | > 10 µM | – | – | 5.9 µM | 5.5 µM | 5.5 µM | 2.5 µM | 5.3 µM | 4.8 µM | – | – |
